Measured values taken from patent US20240158446A1, “CYCLIC COMPOUND HAVING SELECTIVE INHIBITORY ACTION ON KRAS OVER HRAS AND NRAS” (CHUGAI SEIYAKU KABUSHIKI KAISHA, priority 2021, published 2024).

Legend:
[1] = biological target: GDP-bound NRAS wild-type protein (Homo sapiens, UniProt P01111); assay: Binding to NRAS by surface plasmon resonance (SPR), Single Cycle Kinetics; details: ratio of KD for GDP-bound NRAS wild-type protein to KD for KRAS, SPR
[2] = test system: human lung cancer strain NCI-H441; assay: cells; details: NCI-H441, 96 h, read-out: NCI-H441 IC50 (nM), NCI-H441 cell proliferation, 4 days, CellTiter-Glo;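 also: cell proliferation inhibition after four days measured by CellTiter-Glo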
[3] = biological target: GDP-bound KRAS wild-type protein (Homo sapiens, UniProt P01116); assay: Binding to KRAS by surface plasmon resonance (SPR), Single Cycle Kinetics; details: SPR, Single Cycle Kinetics, GDP-bound KRAS wild-type protein; read-out: KRAS KD
[4] = biological target: GDP-bound HRAS wild-type protein (Homo sapiens, UniProt P01112); assay: Binding to HRAS by surface plasmon resonance (SPR), Single Cycle Kinetics; details: ratio of KD for GDP-bound HRAS wild-type protein to KD for KRAS, SPR
GDP-bound HRAS wild-type protein, sequence (P01112 whole entry): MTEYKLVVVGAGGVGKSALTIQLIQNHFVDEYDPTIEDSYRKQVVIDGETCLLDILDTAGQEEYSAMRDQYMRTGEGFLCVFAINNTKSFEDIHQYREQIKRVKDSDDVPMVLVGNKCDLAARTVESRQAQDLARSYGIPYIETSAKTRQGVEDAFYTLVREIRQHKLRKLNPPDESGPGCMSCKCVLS

GDP-bound KRAS wild-type protein, sequence (P01116 whole entry): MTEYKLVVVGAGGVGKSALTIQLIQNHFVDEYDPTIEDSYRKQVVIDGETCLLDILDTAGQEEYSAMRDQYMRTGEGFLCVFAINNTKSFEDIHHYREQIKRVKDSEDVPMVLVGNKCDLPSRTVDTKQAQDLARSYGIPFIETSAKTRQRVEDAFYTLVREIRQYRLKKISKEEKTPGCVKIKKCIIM
GDP-bound NRAS wild-type protein, sequence (P01111 whole entry): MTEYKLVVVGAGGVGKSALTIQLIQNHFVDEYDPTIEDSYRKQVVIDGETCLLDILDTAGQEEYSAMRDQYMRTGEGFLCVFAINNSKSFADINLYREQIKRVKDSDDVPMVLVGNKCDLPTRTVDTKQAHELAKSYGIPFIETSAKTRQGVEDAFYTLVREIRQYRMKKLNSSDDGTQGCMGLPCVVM

| SMILES | NRAS/KRAS (KD ratio) [1] | IC50 [2] [nM] | Kd [3] [nM] | HRAS/KRAS (KD ratio) [4] |
| --- | --- | --- | --- | --- |
| CC[C@H](C)[C@@H]1NC(=O)[C@H](C(C)C)N(C)C(=O)C[C@@H](C(=O)N(C)C)N(C)C(=O)[C@H](C2CCCC2)N(C)C(=O)C2(CC(C)(C)C2)NC(=O)[C@@H]2C[C@H](C)CN2C(=O)[C@H](CCc2ccc(C(F)(F)F)c(OC)c2)NC(=O)CN(C)C(=O)[C@H](Cc2ccc(C(F)(F)F)cc2)N2CC/C=C\C[C@@H](C2=O)N(C)C(=O)CN(C)C1=O [PP2005] | A (a compound having 10 or more and less than 20 is denoted as A) | 10.7 | 0.13 | A (a compound having 10 or more and less than 20 is denoted as A) |
| CC[C@H](C)[C@@H]1NC(=O)[C@H](C2CC2)N(C)C(=O)C[C@@H](C(=O)N(C)CC)N(C)C(=O)[C@H](C2CCCC2)N(C)C(=O)C2(CC(C)(C)C2)NC(=O)[C@@H]2C[C@H](C)CN2C(=O)[C@H](CCc2ccc(C(F)(F)F)c(OC)c2)NC(=O)CN(C)C(=O)[C@H](Cc2ccc(C(F)(F)F)cc2)N2CC/C=C\C[C@@H](C2=O)N(C)C(=O)CN(C)C1=O [PP2007] | AA (a compound having 20 or more is denoted as AA) | 14.9 | 0.14 | B (a compound having 3 or more and less than 10 is denoted as B) |
| CC[C@H](C)[C@@H]1NC(=O)[C@H](C2CCC2)N(C)C(=O)C[C@@H](C(=O)N(C)CC)N(C)C(=O)[C@H](C2CCCC2)N(C)C(=O)C2(CC(C)(C)C2)NC(=O)[C@@H]2C[C@H](C)CN2C(=O)[C@H](CCc2ccc(C(F)(F)F)c(OC)c2)NC(=O)CN(C)C(=O)[C@H](Cc2ccc(C(F)(F)F)cc2)N2CC/C=C\C[C@@H](C2=O)N(C)C(=O)CN(C)C1=O [PP2009] | A (a compound having 10 or more and less than 20 is denoted as A) | 19.7 | 0.19 | A (a compound having 10 or more and less than 20 is denoted as A) |
| CCCN(C)C(=O)[C@@H]1CC(=O)N(C)[C@@H](CC(F)F)C(=O)N[C@@H]([C@@H](C)CC)C(=O)N(C)CC(=O)N(C)[C@H]2C/C=C\CCN(C2=O)[C@@H](Cc2ccc(C(F)(F)F)cc2)C(=O)N(C)CC(=O)N[C@@H](CCc2ccc(C(F)(F)F)c(OC)c2)C(=O)N2C[C@H](OCC)C[C@H]2C(=O)NC2(CC(C)(C)C2)C(=O)N(C)[C@@H](C2CCCC2)C(=O)N1C [PP2010] | A (a compound having 10 or more and less than 20 is denoted as A) | 6.6 | 0.14 | B (a compound having 3 or more and less than 10 is denoted as B) |
| CC[C@H](C)[C@@H]1NC(=O)[C@H](C2CCC2)N(C)C(=O)C[C@@H](C(=O)N(C)C)N(C)C(=O)[C@H](C2CCCC2)N(C)C(=O)C2(CC(C)(C)C2)NC(=O)[C@@H]2C[C@H](C)CN2C(=O)[C@H](CCc2ccc(C(F)(F)F)c(OC)c2)NC(=O)CN(C)C(=O)[C@H](Cc2ccc(C(F)(F)F)cc2)N2CC/C=C\C[C@@H](C2=O)N(C)C(=O)CN(C)C1=O [PP2011] | A (a compound having 10 or more and less than 20 is denoted as A) | 10.3 | 0.11 | A (a compound having 10 or more and less than 20 is denoted as A) |
| CCCN(C)C(=O)[C@@H]1CC(=O)N(C)[C@@H](COCC)C(=O)N[C@@H]([C@@H](C)CC)C(=O)N(C)CC(=O)N(C)[C@H]2C/C=C\CCN(C2=O)[C@@H](Cc2ccc(C(F)(F)F)cc2)C(=O)N(C)CC(=O)N[C@@H](CCc2ccc(C(F)(F)F)c(OC)c2)C(=O)N2C[C@H](OCC)C[C@H]2C(=O)NC2(CC(C)(C)C2)C(=O)N(C)[C@@H](C2CCCC2)C(=O)N1C [PP2012] | AA (a compound having 20 or more is denoted as AA) | 11.6 | 0.097 | A (a compound having 10 or more and less than 20 is denoted as A) |
| CCCN(C)C(=O)[C@@H]1CC(=O)N(C)[C@@H](CC(F)F)C(=O)N[C@@H]([C@@H](C)CC)C(=O)N(C)CC(=O)N(C)[C@H]2C/C=C\CCN(C2=O)[C@@H](Cc2ccc(C(F)(F)F)cc2)C(=O)N(C)CC(=O)N[C@@H](CCc2ccc(C(F)(F)F)c(OC)c2)C(=O)N2C[C@H](OCC)C[C@H]2C(=O)NC2(CCC2)C(=O)N(C)[C@@H](C2CCCC2)C(=O)N1C [PP2013] | A (a compound having 10 or more and less than 20 is denoted as A) | 7.7 | 0.13 | B (a compound having 3 or more and less than 10 is denoted as B) |
| CCOC[C@H]1C(=O)N[C@@H]([C@@H](C)CC)C(=O)N(C)CC(=O)N(C)[C@H]2C/C=C\CCN(C2=O)[C@@H](Cc2ccc(C(F)(F)F)cc2)C(=O)N(C)CC(=O)N[C@@H](CCc2ccc(C(F)(F)F)c(OC)c2)C(=O)N2C[C@H](OCC)C[C@H]2C(=O)NC2(CC(C)(C)C2)C(=O)N(C)[C@@H](C2CCCC2)C(=O)N(C)[C@H](C(=O)N(C)CC)CC(=O)N1C [PP2014] | A (a compound having 10 or more and less than 20 is denoted as A) | 6.9 | 0.093 | A (a compound having 10 or more and less than 20 is denoted as A) |
| CCCN(C)C(=O)[C@@H]1CC(=O)N(C)[C@@H](COCC)C(=O)N[C@@H]([C@@H](C)CC)C(=O)N(C)CC(=O)N(C)[C@H]2C/C=C\CCN(C2=O)[C@@H](Cc2ccc(C(F)(F)F)cc2)C(=O)N(C)CC(=O)N[C@@H](CCc2ccc(C(F)(F)F)c(OC)c2)C(=O)N2C[C@H](OCC)C[C@H]2C(=O)NC2(CCC2)C(=O)N(C)[C@@H](C2CCCC2)C(=O)N1C [PP2015] | A (a compound having 10 or more and less than 20 is denoted as A) | 5.6 | 0.11 | B (a compound having 3 or more and less than 10 is denoted as B) |
| CCCOC[C@H]1C(=O)N[C@@H]([C@@H](C)CC)C(=O)N(C)CC(=O)N(C)[C@H]2C/C=C\CCN(C2=O)[C@@H](Cc2ccc(C(F)(F)F)cc2)C(=O)N(C)CC(=O)N[C@@H](CCc2ccc(C(F)(F)F)c(OC)c2)C(=O)N2C[C@H](OCC)C[C@H]2C(=O)NC2(CCC2)C(=O)N(C)[C@@H](C2CCCC2)C(=O)N(C)[C@H](C(=O)N(C)CC)CC(=O)N1C [PP2016] | A (a compound having 10 or more and less than 20 is denoted as A) | 8.2 | 0.11 | A (a compound having 10 or more and less than 20 is denoted as A) |
| CCCN(C)C(=O)[C@@H]1CC(=O)N(C)[C@@H](CCOC)C(=O)N[C@@H]([C@@H](C)CC)C(=O)N(C)CC(=O)N(C)[C@H]2C/C=C\CCN(C2=O)[C@@H](Cc2ccc(C(F)(F)F)cc2)C(=O)N(C)CC(=O)N[C@@H](CCc2ccc(C(F)(F)F)c(OC)c2)C(=O)N2C[C@H](OCC)C[C@H]2C(=O)NC2(CCC2)C(=O)N(C)[C@@H](C2CCCC2)C(=O)N1C [PP2018] | A (a compound having 10 or more and less than 20 is denoted as A) | 5.3 | 0.1 | B (a compound having 3 or more and less than 10 is denoted as B) |
| CCCN(C)C(=O)[C@@H]1CC(=O)N(C)[C@@H](C(C)C)C(=O)N[C@@H]([C@@H](C)CC)C(=O)N(C)CC(=O)N(C)[C@H]2C/C=C\CCN(C2=O)[C@@H](Cc2ccc(C(F)(F)F)cc2)C(=O)N(C)CC(=O)N[C@@H](CCc2ccc(C(F)(F)F)c(OC)c2)C(=O)N2C[C@H](OCC)C[C@H]2C(=O)NC2(CCC2)C(=O)N(C)[C@@H](C2CCCC2)C(=O)N1C [PP2020] | A (a compound having 10 or more and less than 20 is denoted as A) | 8.3 | 0.19 | A (a compound having 10 or more and less than 20 is denoted as A) |
| CCO[C@@H]1C[C@H]2C(=O)NC3(CCC3)C(=O)N(C)[C@@H](C3CCCC3)C(=O)N(C)[C@H](C(=O)N(C)CC)CC(=O)N(C)[C@@H](C3CC3)C(=O)N[C@@H]([C@@H](C)CC)C(=O)N(C)CC(=O)N(C)[C@H]3C/C=C\CCN(C3=O)[C@@H](Cc3ccc(C(F)(F)F)cc3)C(=O)N(C)CC(=O)N[C@@H](CCc3ccc(C(F)(F)F)c(OC)c3)C(=O)N2C1 [PP2021] | A (a compound having 10 or more and less than 20 is denoted as A) | 4.9 | 0.12 | B (a compound having 3 or more and less than 10 is denoted as B) |
| CCOC[C@H]1C(=O)N[C@@H]([C@@H](C)CC)C(=O)N(C)CC(=O)N(C)[C@H]2C/C=C\CCN(C2=O)[C@@H](Cc2ccc(C(F)(F)F)cc2)C(=O)N(C)CC(=O)N[C@@H](CCc2ccc(C(F)(F)F)c(OC)c2)C(=O)N2C[C@@H](C)C[C@H]2C(=O)NC2(CCC2)C(=O)N(C)[C@@H](C2CCCC2)C(=O)N(C)[C@H](C(=O)N(C)CC)CC(=O)N1C [PP2026] | A (a compound having 10 or more and less than 20 is denoted as A) | 22.6 | 0.089 | A (a compound having 10 or more and less than 20 is denoted as A) |
| CCCN(C)C(=O)[C@@H]1CC(=O)N(C)[C@@H](CC(F)F)C(=O)N[C@@H]([C@@H](C)CC)C(=O)N(C)CC(=O)N(C)[C@H]2C/C=C\CCN(C2=O)[C@@H](Cc2ccc(C(F)(F)F)cc2)C(=O)N(C)CC(=O)N[C@@H](CCc2cc(F)c(C(F)(F)F)c(F)c2)C(=O)N2C[C@H](OCC)C[C@H]2C(=O)NC2(CC(C)(C)C2)C(=O)N(C)[C@@H](C2CCCC2)C(=O)N1C [PP2030] | A (a compound having 10 or more and less than 20 is denoted as A) | 4.5 | 0.12 | A (a compound having 10 or more and less than 20 is denoted as A) |
